From patent US20240081300A1, “ADRENERGIC MECHANISMS OF AUDIOGENIC SEIZURE-INDUCED DEATH IN MOUSE MODEL OF SCN8A ENCEPHALOPATHY” (University of Virginia Patent Foundation, priority 2021, published 2024)
Entries after “also recorded” stand apart in the source; their conditions may differ.

Experiments:
[1] = test system: P20-21 D/+ mice (Scn8a N1768D); assay: Audiogenic seizure-induced death in P20-21 D/+ mice (adrenergic agonists, adrenergic blockade with mechanical ventilation); type: in vivo, mouse; conditions: for postictal breathing recovery (plethysmography): 3 mg/kg phenylephrine i.p. 1 minute prior
Protocol: (§1) Audiogenic seizure assessment. To test for audiogenic seizures mice were taken from their home cage and transferred to a clean test cage where they were allowed to acclimate for ˜20 seconds before the onset of the acoustic stimulus. Similar to a method described previously (Martin et al., 2020), a sonicator (Branson 200 ultrasonic cleaner) was used to produce the audiogenic stimulus directly adjacent to the test cage.
(§2) Audiogenic seizures were recorded using a laptop webcam. Duration of seizure phases were analyzed by taking the time in seconds that the mouse spent in each of the phases: a wild-running phase characterized by fast circular running throughout the cage, a tonic phase characterized by hindlimb extension and muscle rigidity, a clonic phase typified by myoclonic jerking of the hindlimbs, and recovery exemplified when the mouse ceased myoclonic jerking and righted itself. In cases where death occurred, the end of the tonic phase was apparent at the point of hindlimb muscle relaxation.
(§3) For recording of only breathing in pharmacological experiments, non-implanted mice were placed in the chambers immediately after injection of pharmacological agents. Stimulation of audiogenic seizures and recording of breathing were performed as described above.
Mechanical ventilation. For the mechanical ventilation of P20-21 D/+ mice during an audiogenic seizure, we quickly placed a custom-made 3 mL pipet which fit snuggly over the mouse's nose and mouth and provided regular pulses of air (˜1 mL at 2 Hz). The ventilation was terminated after the mouse initiated gasping behavior or 20 s after the animal experienced sudden death.
Adrenergic receptor pharmacology. All chemicals were purchased from Sigma Aldrich and were either of pharmaceutical grade or were sterile filtered prior to injection. Injections were given intraperitoneal in a volume of 50-100 ul sterile saline per […] of mouse weight (e.g. 0.1 mL for a […] adult mouse). […] Injection of 50-100 ul sterile saline per […] of mouse weight was used as control.

[2] = test system: DBA1 mice; conditions: intracerebroventricular injection (Zhao et al., 2017); cited from earlier work
[3] = test system: maximal electroshock seizures; conditions: intracerebroventricular injection (Kruse et al., 2019); cited from earlier work
[4] = test system: adult D/+ mice (Scn8a N1768D); assay: Audiogenic seizure survival in adult D/+ mice after adrenergic receptor inhibition; type: in vivo, mouse; conditions: 10 mg/kg sotalol i.p. 15 minutes prior to audiogenic seizure stimulation
Protocol: as §1, §2, §3
Mechanical ventilation. […]

With `NC[C@H](O)c1ccc(O)c(O)c1` [NE, 4-[(1R)-2-amino-1-hydroxyethyl]benzene-1,2-diol] the “breathing recovery after tonic phase (plethysmography)” value ([1]; 2 mg/kg norepinephrine i.p. 1 minute prior) was “resulted in breathing recovery” and the “survival after audiogenic seizure (mice surviving of mice tested)” value (shortened to “survival … (mice surviving of mice tested)”) ([1]; 2 mg/kg norepinephrine i.p. 1 minute prior to audiogenic seizure stimulation, saline 3 of 13, 2 mg/kg) was 10 of 13 and significantly elevated rates of survival.

In the case of `CNCC[C@@H](Oc1ccccc1C)c1ccccc1` [atomoxetine], the “prevention of death from audiogenic seizures” value [2] is listed as “prevents death”.

In the case of `CNC[C@H](O)c1ccc(O)c(O)c1` [epinephrine], the “survival after audiogenic seizure (mice rescued of mice tested)” value ([1]; 2 mg/kg epinephrine i.p. 1 minute prior to audiogenic seizure stimulation, 2 mg/kg) is reported as “one of the five; also recorded: did not seem to result in rescue”.

With `CNC[C@H](O)c1cccc(O)c1` [phenylephrine, 3-[(1R)-1-hydroxy-2-(methylamino)ethyl]phenol] the “survival … (mice surviving of mice tested)” value ([1]; 3 mg/kg phenylephrine i.p. 1 minute prior to audiogenic seizure stimulation, 3 mg/kg) was 7 out of 8 and rescued death, the “survival … (mice surviving of mice tested)” value ([1]; 3 mg/kg phenylephrine i.p. 1 minute prior to audiogenic seizure stimulation, listed as PE, 3 mg/kg) was “significantly elevated rates of survival” and the “postictal breathing recovery (plethysmography)” value ([1]; 3 mg/kg) was “promoted postictal breathing recovery”. The “postictal breathing recovery (plethysmography)” value ([1]; listed as PE, 3 mg/kg) was “breathing also ceased during the tonic phase but recovered” and the “prevention of death from maximal electroshock seizures” value [3] was “prevents death”.

With `CC(C)NCC(O)c1ccc(NS(C)(=O)=O)cc1` (stereo not shown) [sotalol] the “survival … (mice surviving of mice tested)” value [4] was 12 out of 12 and had no affect on death rate.
